These results are taken from patent US4081548A, “Antibiotics” (Merck & Co., Inc., priority 1976, dated 1978).

Structures are written as SMILES.

Format in all cases: cell-based
The test system of assay [1] is Staphylococcus aureus ATCC 6538P. In words: disc-diffusion assay of antibacterial activity (5 ml plates). As to conditions: estimated or calculated potency; one unit = same inhibition as 1 μg. of cephalothin/ml. On the procedure:
Assays of antibacterial activity are run according to the following disc-diffusion procedure unless otherwise indicated. The assay plates are prepared in the following manner. An overnight growth of the assay organism, Staphylococcus aureus ATCC 6538P, in nutrient broth plus 0.2% yeast extract is diluted with nutrient broth plus 0.2% yeast extract to a suspension having 55% transmittance at a wavelength of 660 mμ. This suspension is added to Difco nutrient agar supplemented with 2.0 g./l. Difco yeast extract, at 47° C. to 48° C., to make a composition containing 33.2 ml. of the suspension per liter of agar. Five ml. of this suspension is poured into petri dishes of 85 mm. diameter, and these plates are chilled and held at 4° C. until used (5 day maximum).
Samples of the antibiotic to be assayed are diluted to an appropriate concentration in phosphate buffer at pH 7. Filter-paper discs, 0.5-inch in diameter, are dipped into the test solution and placed on the surface of the assay plate; two discs for each sample are normally placed on one plate opposite to one another. The plates are incubated overnight at 37° C. and the zone of inhibition is measured as mm. diameter. The zone of inhibition measured in mm. determines relative potencies or, when compared with a purified reference standard such as cephalothin, the potency of antibiotic in units/ml. The unit of activity reported in Examples 4 through 7 is based on cephalothin standard solutions of 8, 4, 2 and 1 μg./ml. One unit is defined as the amount which calculates to produce the same inhibition as 1 μg. of cephalothin/ml. that zone of inhibition being between 16 and 21 mm. diameter.

For the next assay, the system named is Bacillus subtilis 964. Put plainly: Bauer-Kirby disc diffusion (2 mm agar depth), zone of inhibition, Table 1. As to conditions: preparation III, 6.6 μg antibiotic/disc, strain resistance: --, read-out: diameter of the zone of inhibition. From the text:
(§1) Thienamycin is further characterized by the following antibiotic spectrum profile. The test employs the Bauer-Kirby disc diffusion method modified only in respect to the 2 mm. agar depth employed here.

Assay [2] concerns Pseudomonas aeruginosa 3210. Described as above. The note with it: preparation III, 6.6 μg antibiotic/disc, strain resistance: P, C (penicillins, cephalosporins), read-out: diameter of the zone of inhibition.
From the text: as §1

For assay [3], the system named is Staphylococcus aureus 2985. The assay is described as above. As to conditions: preparation III, 6.6 μg antibiotic/disc, strain resistance: --, read-out: diameter of the zone of inhibition.
From the text: as §1

The subject of assay [4] is Staphylococcus aureus 2314. Described as above. The note with it: preparation III, 6.6 μg antibiotic/disc, strain resistance: P (penicillins), read-out: diameter of the zone of inhibition.
From the text: as §1

The test system of another assay is Escherichia coli 2964. Described as above. As to conditions: preparation III, 6.6 μg antibiotic/disc, strain resistance: P, C (penicillins, cephalosporins), read-out: diameter of the zone of inhibition.
From the text: as §1

The test system of the next assay is Serratia 2840. Described as above. The note with it: preparation III, 6.6 μg antibiotic/disc, strain resistance: P, C (penicillins, cephalosporins), read-out: diameter of the zone of inhibition.
From the text: as §1

In assay [5] the test system is Streptococcus faecalis 755. The assay is described as above. The note with it: Enterococcus faecalis, preparation III, 6.6 μg antibiotic/disc, strain resistance: --, read-out: diameter of the zone of inhibition.
From the text: as §1

The next assay has as its system Proteus mirabilis 2830. Described as above. The note with it: preparation III, 6.6 μg antibiotic/disc, strain resistance: P, C (penicillins, cephalosporins), read-out: diameter of the zone of inhibition.
From the text: as §1

In a further assay the test system is Klebsiella 2921. Described as above. As to conditions: preparation III, 6.6 μg antibiotic/disc, strain resistance: P (penicillins), read-out: diameter of the zone of inhibition.
From the text: as §1

Assay [6] relates to Enterobacter cloacae 2646. The description is as above. As to conditions: preparation III, 6.6 μg antibiotic/disc, strain resistance: P, C (penicillins, cephalosporins), read-out: diameter of the zone of inhibition.
From the text: as §1

The subject of assay [7] is Enterobacter cloacae 2647. Described as above. The note with it: preparation III, 6.6 μg antibiotic/disc, strain resistance: --, read-out: diameter of the zone of inhibition.
From the text: as §1

The test system of assay [8] is Pseudomonas aeruginosa 2616. The description is as above. The note with it: preparation III, 6.6 μg antibiotic/disc, strain resistance: P, C (penicillins, cephalosporins), read-out: diameter of the zone of inhibition.
From the text: as §1

The next assay has as its system Klebsiella 2922. The description is as above. The note with it: preparation III, 6.6 μg antibiotic/disc, strain resistance: P (penicillins), read-out: diameter of the zone of inhibition.
From the text: as §1

The next assay deals with Escherichia coli 2482. The description is as above. The note with it: preparation III, 6.6 μg antibiotic/disc, strain resistance: --, read-out: diameter of the zone of inhibition.
From the text: as §1

The subject of assay [9] is Pseudomonas aeruginosa 2824. Described as above. As to conditions: preparation III, 6.6 μg antibiotic/disc, strain resistance: P, C (penicillins, cephalosporins), read-out: diameter of the zone of inhibition.
From the text: as §1

Another assay deals with Proteus morganii 2833. Described as above. As to conditions: Morganella morganii, preparation III, 6.6 μg antibiotic/disc, strain resistance: P, C (penicillins, cephalosporins), read-out: diameter of the zone of inhibition.
From the text: as §1

The subject of a further assay is Escherichia coli 2017. Described as above. The note with it: preparation III, 6.6 μg antibiotic/disc, strain resistance: --, read-out: diameter of the zone of inhibition.
From the text: as §1

For the compound `C[C@@H](O)[C@H]1C(=O)N2C(C(=O)O)=C(SCCN)C[C@H]12` [III, thienamycin], in [1], the “potency (estimated / calculated)” value is listed as ~31,000 units/mg. The zone of inhibition at 6.6 µg/disc was found to be 46 mm in the assay on Bacillus subtilis 964; 25 mm in [2]; 38 mm in [3]; 38 mm in assay [4]; 27 mm in the assay on Escherichia coli 2964; 23 mm in the assay on Serratia 2840. In addition, the zone of inhibition at 6.6 µg/disc in assay [5] was 24 mm; in the assay on Proteus mirabilis 2830, 21 mm; in the assay with Klebsiella 2921, 25 mm; in assay [6], 25 mm; in [7], 27.5 mm; in assay [8], 20.5 mm. Moreover, the zone of inhibition at 6.6 µg/disc was determined as 25 mm with Klebsiella 2922; 27 mm with Escherichia coli 2482; 30 mm in assay [9]; 20 mm with Proteus morganii 2833; 28 mm with Escherichia coli 2017.
